The results in this text go back to ChEMBL document CHEMBL2440063, “Fragment-based identification of a locus in the Sec7 domain of Arno for the design of protein-protein interaction inhibitors” (J Med Chem, 2013).

As a reminder, the inhibition is the relative decrease from the control value, in per cent. Broadly, the Kd is the free concentration of one partner at which half of the binding sites on the other are occupied at equilibrium, for simple one-to-one binding. The low end stands for higher affinity, the high end for lower affinity.

The target of assay [1] is T1, Cytohesin-2 (Homo sapiens) (UniProt Q99418).
T1 sequence (whole entry): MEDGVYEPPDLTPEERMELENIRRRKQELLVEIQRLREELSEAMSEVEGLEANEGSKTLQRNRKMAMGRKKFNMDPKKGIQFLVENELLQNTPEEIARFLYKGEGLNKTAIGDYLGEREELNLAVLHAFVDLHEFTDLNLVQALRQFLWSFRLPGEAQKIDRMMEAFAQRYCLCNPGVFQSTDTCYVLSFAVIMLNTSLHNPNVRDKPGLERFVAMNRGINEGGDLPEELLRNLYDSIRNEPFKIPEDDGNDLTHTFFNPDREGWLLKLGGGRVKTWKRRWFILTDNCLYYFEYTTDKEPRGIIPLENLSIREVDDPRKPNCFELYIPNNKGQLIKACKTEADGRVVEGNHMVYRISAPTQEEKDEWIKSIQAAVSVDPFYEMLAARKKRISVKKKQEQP
The assay is described as follows: Binding affinity to human Arno Sec7 domain immobilized on CAP sensor chip at 1 mM after 15 mins by […].

In assay [2] the target is T1, Cytohesin-2 (Homo sapiens). The assay is described as follows: Binding affinity to human Arno Sec7 domain immobilized on CAP sensor chip at 250 uM by surface plasmon resonance analysis.
In assay [3] the target is T1, Cytohesin-2 (Homo sapiens). The experiment in a line: Inhibition of human Alexa 488 labeled Arno Sec7 domain-mediated promiscuous aggregator activity in delta17 Arf1 (17 to 181) at >20 uM by fluorescence anisotropy assay. (In general: Polarisation of emitted light reports the rotation of a fluorescent probe.)
Assay [4] has as its target T1, Cytohesin-2 (Homo sapiens). The assay is described as follows: Inhibition of human Arno Sec7 domain-mediated nucleotide exchange in delta17 Arf1 (17 to 181) at 1 mM by BODIPY-GTP based time resolved fluorescence assay relative to control.
In assay [5] the target is T2, Cytohesin-2 (Homo sapiens, UniProt Q99418).
T2 sequence (Q99418 whole entry): T1 sequence (whole entry)
The experiment in a line: Inhibition of human Arno Sec7 domain-mediated nucleotide exchange in delta17 Arf1 (17 to 181) by BODIPY-GTP based time resolved fluorescence assay. The conditions noted are these: read-out: Ki(app).

Assay [6] addresses T1, Cytohesin-2 (Homo sapiens). The experiment in a line: Inhibition of human Arno Sec7 domain-mediated nucleotide exchange in delta17 Arf1 (17 to 181) at 2 mM by BODIPY-GTP based time resolved fluorescence assay relative to control.
Assay [7] deals with T1, Cytohesin-2 (Homo sapiens). The assay is described as follows: Inhibition of human Alexa 488 labeled Arno Sec7 domain-mediated promiscuous aggregator activity in delta17 Arf1 (17 to 181) at 1 to 100 uM by fluorescence anisotropy assay.
Assay [8] deals with T1, Cytohesin-2 (Homo sapiens). The assay is described as follows: Inhibition of human Arno Sec7 domain […] delta17 Arf1 (17 to 181) at 1 mM after 15 mins by BODIPY-GTP based time resolved fluorescence assay relative to control.
The target in assay [9] is T2, Cytohesin-2. The experiment in a line: Binding affinity to human Arno Sec7 domain immobilized on CAP sensor chip after 15 mins by […].
Assay [10] concerns the target T1, Cytohesin-2 (Homo sapiens). The experiment in a line: Inhibition of human Alexa 488 labeled Arno Sec7 domain-mediated promiscuous aggregator activity in delta17 Arf1 (17 to 181) at 100 uM by fluorescence anisotropy assay.

The source made the active and inactive calls. No cut-off for these calls is given here.

`CCN(CC)Cc1cc(NC(C)=O)ccc1O`: the result in [1] was inactive. Besides, the outcome in assay [2] was Active.
In the case of `Clc1ccccc1C(c1ccccc1)(c1ccccc1)n1ccnc1`, the inhibition result in assay [3] was “Active”.
Consider `Cc1cc(C)c(S(=O)(=O)Nc2ccc(O)cc2C)c(C)c1`, for which the inhibition in assay [4] was determined as 51.5%. For the same compound, the Ki on Cytohesin-2 [5] was 0.98 mM.
Turning to `Cc1cc(O)ccc1NS(=O)(=O)c1cccs1`, the inhibition in [6] is 16.4%. For the same compound, the outcome in assay [1] and in [2] was Active. Further, in assay [7], the inhibition result was “inactive”.
In assay [6], `Cc1cc(NS(=O)(=O)c2ccccc2)cc(C)c1O` came in with an inhibition of 31.2%. In addition, the Ki at Cytohesin-2 [5] came to 5.12 mM.
As to `O=S(=O)(Nc1ccccc1O)c1ccccc1`, in assay [1], the result was inactive. Besides, in assay [4], the inhibition came to 21.6%.
`Cc1c(C(N)=O)sc(N)c1C(=O)OC(C)C`: in assay [6], the inhibition is 37.9%. In addition, the result in [1] was Active. Also, the inhibition result in [7] is “inactive”. Besides, in assay [2], the result was inactive.
In assay [4], `Cc1ccc(S(=O)(=O)Nc2cc(C)c(O)cc2C)cc1` came in with an inhibition of 66.7%.
Turning to `Cc1cc(O)cc(C)c1NS(=O)(=O)c1ccccc1`, the inhibition in assay [8] amounted to 30%; in [6], 34.6%. Besides, the outcome in assay [1] and in assay [2] was Active. The inhibition entry in assay [7] was “inactive”. The Ki on Cytohesin-2 [5] is 3.72 mM. Besides, on Cytohesin-2 [9], the Kd was determined as 0.5 mM.
As for `Cc1cc(O)cc(C)c1NC(=O)c1cccc([N+](=O)[O-])c1`, the inhibition in assay [6] came to 16%. The result in [1] was Active.
`COc1ccc(S(=O)(=O)Nc2c(C)cc(O)cc2C)cc1`: the inhibition in assay [8] was 35%; in assay [4], 32.1%. The Ki at Cytohesin-2 [5] turned out to be 1.61 mM.
In the case of `Cc1ccc(C)c(-c2csc(N)n2)c1`, the inhibition in assay [6] stood at 22.6%. Besides, the result in assay [1] and in assay [2] was Active. Further, in assay [7], the inhibition result is “inactive”.
As to `Cc1cc(O)cc(C)c1NS(=O)(=O)c1ccc([N+](=O)[O-])cc1`, in assay [1], the result was Active. Also, the inhibition in [4] is 58.4%. Moreover, the Ki on Cytohesin-2 [5] was 0.54 mM.
Consider `CC(C)(C)c1ccc(C(=O)NCc2ccco2)cc1`, for which, in [10], the inhibition result was “Active”.
In assay [6], `Cc1c(O)ccc(NS(=O)(=O)c2ccccc2)c1C` returned an inhibition of 24.2%.
Take `COc1cc(C(=O)Nc2c(C)cc(O)cc2C)cc(OC)c1OC`: the inhibition in assay [6] was determined as 9.9%. The result in assay [1] was Active.
Compound `Cc1ccc(S(=O)(=O)Nc2c(C)cc(O)cc2C)cc1` displayed an inhibition in assay [4] of 32.7%. At Cytohesin-2 [5], the Ki was 1.91 mM.
Turning to `O=C1CNC(=O)N1C12CC3CC(CC(C3)C1)C2`, the result in assay [1] was inactive. In assay [2], the result was Active.
